Assay [1] relates to isolated uterine smooth muscle. Kind of assay: Effects on isolated uterine smooth muscle of rats (relaxation of oxytocin pre-contracted preparations). The format is cell-based. The procedure:
Non-pregnant female Wistar rats weighing about 200 g were killed and the uteruses were isolated. Each uterine preparation (15 mm in length) was mounted vertically in an organ bath containing modified Locke-Ringer solution of following composition: 150 mM NaCl, 5.4 mM KCl, 0.36 mM CaCl₂, 0.19 mM MgCl₂, 4.8 mM NaHCO₃, 0.15 mM KH₂ PO₄, 0.56 mM Na₂ HPO₄ and 2.8 mM Glucose. The bath medium was maintained at 37 °C and was equilibrated with a gas mixture consisting of 95% O₂ + 5% CO₂. The uterine preparations were pre-contracted with oxytocin (10 ⁻² U/ml) and the muscle relaxations induced by the test compounds were recorded isotonically. The test compounds were added cumulatively to the bath. ED₅₀ values for concentration-response curves which produce 50% relaxations of the maximal relaxations (10 ⁻⁶ M isoproterenol) were calculated.

Assay [2] deals with isolated atrium. Briefly: Effects on isolated atrium of guinea-pigs (spontaneous beating rate of right atrium). The format is cell-based. The procedure:
Male Hartley guinea-pigs weighing about 500 g were killed and the atria were isolated. Each right atrium was mounted vertically in an organ bath containing Krebs-Henseleit solution and the spontaneous beating rate was recorded. The bath medium was maintained at 30°C and was equilibrated with a gas mixture consisting of 95% O₂ + 5% CO₂. The test compounds were added cumulatively to the bath. ED₅₀ values for concentration-response curves which produce 50% increases of the basal spontaneous beating rate were calculated. The results are shown in Table 3 The selcctive relaxing activities of the compound of the present invention on the uterine and the bladder smooth muscle were compared with positive chronotropic effect in the atrium.

Molecules are shown by their SMILES.

On to `CC(C)(C)NCC(O)c1ccc(O)cc1Cl` (single isomer, unassigned; (-)) [(-)-enantiomer, (-)-α -[(tert-Butylamino)methyl]-2-chloro-4-hydroxybenzyl alcohol], for which, in assay [1] (from the ED₅₀ values of Table 1, fold greater than ritodrine), the “effect relative to ritodrine” value is on record as approximately 25 fold. In assay [1] (from the ED₅₀ values of Table 1, fold greater than the (+)-enantiomer), the “effect relative to the (+)-enantiomer” value is “about 130 fold”. Also, in assay [2] (ED₅₀ value (positive chronotropic effect in the atrium) / ED₅₀ value (relaxing effect on the bladder smooth muscle)), the “Selectivity Bladder” value is listed as 462. Further, the “Selectivity Uterus” value in assay [2] (ED₅₀ value (positive chronotropic effect in the atrium) / ED₅₀ value (relaxing effect on the uterine smooth muscle)) is reported as 21.
